The results in this text go back to US8431564B2 (Merck Sharp & Dohme B.V., priority 2009, dated 2013).

The target of this assay is T1, human FSH receptor (Homo sapiens, UniProt P23945).
T1 construct: expressed in transfected cells; host or cells: CHO (Chinese Hamster Ovary) cells, stably transfected, cotransfected with CRE-luciferase reporter
T1 sequence (P23945 18-695): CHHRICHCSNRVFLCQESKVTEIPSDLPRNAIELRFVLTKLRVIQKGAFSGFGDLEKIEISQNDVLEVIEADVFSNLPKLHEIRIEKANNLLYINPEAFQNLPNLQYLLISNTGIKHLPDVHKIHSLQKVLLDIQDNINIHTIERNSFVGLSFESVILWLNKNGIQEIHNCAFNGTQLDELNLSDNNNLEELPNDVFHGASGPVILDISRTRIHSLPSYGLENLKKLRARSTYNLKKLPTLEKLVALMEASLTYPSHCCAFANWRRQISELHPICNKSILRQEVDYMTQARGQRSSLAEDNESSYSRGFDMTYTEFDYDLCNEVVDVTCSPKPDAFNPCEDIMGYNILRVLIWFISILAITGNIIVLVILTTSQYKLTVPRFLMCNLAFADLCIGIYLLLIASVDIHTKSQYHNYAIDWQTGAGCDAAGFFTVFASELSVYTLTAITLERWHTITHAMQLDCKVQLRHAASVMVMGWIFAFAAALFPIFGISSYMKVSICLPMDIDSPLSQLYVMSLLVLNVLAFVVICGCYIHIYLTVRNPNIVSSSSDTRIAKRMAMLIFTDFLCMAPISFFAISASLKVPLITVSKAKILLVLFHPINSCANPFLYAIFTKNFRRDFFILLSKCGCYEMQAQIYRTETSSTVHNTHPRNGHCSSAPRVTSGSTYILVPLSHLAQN
Briefly: Agonistic activity at the human FSH receptor expressed in CHO cells (CRE-luciferase reporter). Particulars: CHO cells stably transfected with human FSH receptor and CRE/luciferase reporter; 4 hours incubation; pEC50 is -log EC50; read-out: hFSHRago (CHO luc) pEC50 (converted). It is filed as cell-based. The text has this:
The term EC50 means the concentration of the test compound that elicits half-maximal (50%) stimulation compared to the compound's maximally attainable effect. pEC50 is the negative log of EC50. The values can be determined e.g. in a cell line transfected with a FSH receptor gene and cotransfected with a cAMP responsive element/promoter directing the expression of a reporter gene. For the determination a software program such as MathIQ (version 2.0, ID Business Solutions Limited) can be used.
Agonistic activity of the compounds at the human FSH receptor was determined in Chinese Hamster Ovary (CHO) cells stably transfected with the human FSH receptor and cotransfected with a cAMP responsive element (CRE)/promotor directing the expression of a firefly luciferase reporter gene. Binding of the compounds to the Gs protein-coupled FSH receptor will result in an increase of cAMP, which in turn will induce an increased transactivation of the luciferase reporter. Cells (7,500 cells/well of a 384 well plate) were incubated in Dulbecco' minimal essential F12 modified medium (Invitrogen), supplemented with 1 μg/ml bovine insulin, 5 μg/ml human apo-transferrin, 80 U/ml penicillin G and 80 μg/ml streptomycin with the test compounds (concentration between 0.0316 nM and 10.0 μM) in duplicate in a humidified atmosphere (95%) at 5-7% CO2 and 37° C. The final concentration of DMSO was 1%. After 4 hours of incubation, plates were allowed to adjust to room temperature for 1 hour. Then, Luclite (PerkinElmer) solution was added to the wells and cells were allowed to lyse for at least 1 hour at room temperature. Subsequently, luciferase activity was measured in a luminescence counter. The signal is expressed as counts per second (cps). The EC50 (concentration of the test compound that elicits half-maximal (50%) luciferase stimulation compared to the compound's maximally attainable effect) and efficacy values (maximal effect of the test compound as percentage of the maximal effect of recombinant human FSH) of the compounds were determined using the software program MathIQ (version 2.0, ID Business Solutions Limited). pEC50 data (pEC50 is −log EC50) are indicated at the synthesis examples.
On the technique in general: In a reporter assay the amount or activity of a reporter protein is the signal.
As for `COc1cc2c(cc1CCCO)-c1c(-c3cccs3)c3c(n1CC2)C(=O)N(C(C)(C)C)CCCC3` [Compound 21j, 3-(9-tert-butyl-14-(thien-2-yl)-3-methoxy-5,6,10,11,12,13-hexahydroazocino[4′,3′:4,5]pyrrolo[2,1-a]isoquinolin-8(9H)-on-2-yl)propan-1-ol], the EC50 was 0.251 nM.

As for `COc1cc2c(cc1OC(C)C)-c1c(-c3ccncc3)c3c(n1CC2)C(=O)N(C(C)(C)C)CCOC3` [Compound 18f, 9-tert-butyl-3-methoxy-2-isopropoxy-14-pyridin-4-yl-5,6,10,11-tetrahydro-9H-[1,4]oxazocino[7′,6′:4,5]pyrrolo[2,1-a]isoquinolin-8(13H)-one], the EC50 is 47.9 nM.

For the molecule `COc1cc2c(cc1-c1ncco1)-c1c(-c3cccs3)c3c(n1CC2)C(=O)N(C(C)(C)C)CCC3` [Compound 4f, 9-tert-butyl-2-(oxazol-2-yl)-3-methoxy-13-(2-thienyl)-5,6,9,10,11,12-hexahydro-8H-azepino[4′,3′:4,5]pyrrolo[2,1-a]isoquinolin-8-one], the EC50 is 11.5 nM.

For the molecule `COc1cc2c(cc1-c1cncs1)-c1c(-c3cncs3)c3c(n1CC2)C(=O)N(C(C)(C)C)CCOC3` [Compound 11l, 9-tert-butyl-3-methoxy-2,14-di-1,3-thiazol-5-yl-5,6,10,11-tetrahydro-9H-[1,4]oxazocino[7′,6′:4,5]pyrrolo[2,1-a]isoquinolin-8(13H)-one], the EC50 is 12.6 nM.

Consider `COc1cc2c(cc1NS(C)(=O)=O)-c1c(-c3cccs3)c3c(n1CC2)C(=O)N(C(C)(C)C)CCCC3` [Compound 29a, 9-tert-butyl-3-methoxy-2-(methylsulfonamido)-14-(thiophen-2-yl)-5,6,10,11,12,13-hexahydroazocino[4′,3′:4,5]pyrrolo[2,1-a]isoquinolin-8(9H)-one], for which the EC50 is 1.95 nM.

Regarding `COc1cc2c(cc1-c1cccnc1)-c1c(Br)c3c(n1CC2)C(=O)N(C(C)(C)C)CCC3` [Compound 13d, 9-tert-butyl-2-pyridin-3-yl-13-bromo-3-methoxy-5,6,9,10,11,12-hexahydro-8H-azepino[4′,3′:4,5]pyrrolo[2,1-a]isoquinolin-8-one], the EC50 was 380 nM.

On to `COCC(O)CNC(=O)c1cc2c(cc1OC)CCn1c3c(c(-c4cccs4)c1-2)CCCCN(C(C)(C)C)C3=O` (centres unmarked) [Compound 26c6, 9-tert-butyl-3-methoxy-2-(2-hydroxy-3-methoxy-1-propylaminocarbonyl)-14-(thiophen-2-yl)-5,6,10,11,12,13-hexahydroazocino[4′,3′:4,5]pyrrolo[2,1-a]isoquinolin-8(9H)-one], for which the EC50 was 1.07 nM.

On to `CCS(=O)(=O)c1cc2c(cc1OC)CCn1c3c(c(-c4cccs4)c1-2)CCCCN(C(C)(C)C)C3=O` [Compound 23f, 9-tert-butyl-14-(thien-2-yl)-2-ethylsulfonyl-3-methoxy-5,6,10,11,12,13-hexahydroazocino[4′,3′:4,5]pyrrolo[2,1-a]isoquinolin-8(9H)-one], for which the EC50 was 1.82 nM.

With `COc1cc2c(cc1-c1cnccn1)-c1c(-c3cccs3)c3c(n1CC2)C(=O)N(C(C)(C)C)CCCOC3` [Compound 7m, 9-tert-butyl-3-methoxy-2-pyrazin-2-yl-15-(2-thienyl)-5,6,9,10,11,12-hexahydro[1,5]oxazonino[8′,7′:4,5]pyrrolo[2,1-a]isoquinolin-8(14H)-one], the EC50 is 17.8 nM.

Regarding `COc1cc2c(cc1OC(C)C)-c1c(-c3cccs3)c3c(n1CC2)C(=O)N(C(C)(C)C)C3` [Compound 15f, 9-tert-butyl-2-isopropoxy-3-methoxy-11-(2-thienyl)-5,6,9,10-tetrahydro-8H-pyrrolo[3′,4′:4,5]pyrrolo[2,1-a]isoquinolin-8-one], the EC50 was 617 nM.

Regarding `CCC(=O)N1CCN(C(C)C)C(=O)c2c(c(-c3cccs3)c3n2CCc2cc(OC)c(OC(C)C)cc2-3)C1` [Compound 14g, 12-propanoyl-9-isopropyl-3-methoxy-2-isopropoxy-14-(2-thienyl)-5,6,10,11,12,13-hexahydro[1,4]diazocino[6′,7′:4,5]pyrrolo[2,1-a]isoquinolin-8(9H)-one], the EC50 is 219 nM.

For the molecule `COc1cc2c(cc1OC(C)C)-c1c(Br)c3c(n1CC2)C(=O)N(C(C)(C)C)CCOC3` [Compound 18d, 9-tert-butyl-3-methoxy-2-isopropoxy-14-bromo-5,6,10,11-tetrahydro-9H-[1,4]oxazocino[7′,6′:4,5]pyrrolo[2,1-a]isoquinolin-8(13H)-one], the EC50 is 126 nM.

In the case of `COc1cc2c(cc1C(=O)O)-c1c(-c3cccs3)c3c(n1CC2)C(=O)N(C(C)(C)C)CCCC3` [Compound 26b, 9-tert-butyl-3-methoxy-14-(thiophen-2-yl)-5,6,10,11,12,13-hexahydroazocino[4′,3′:4,5]pyrrolo[2,1-a]isoquinolin-8(9H)-one-2-carboxylic acid], the EC50 is 44.7 nM.

Regarding `COc1cc2c(cc1-c1ncco1)-c1c(-c3cccs3)c3c(n1CC2)C(=O)N(C(C)C)CCN(C(=O)C(C)C)C3` [Compound 10x, 9-isopropyl-3-methoxy-12-isobutyryl-14-(2-thienyl)-2-oxazol-2-yl-5,6,10,11,12,13-hexahydro[1,4]diazocino[6′,7′:4,5]pyrrolo[2,1-a]isoquinolin-8(9H)-one], the EC50 is 1260 nM.

Turning to `COc1cc2c(cc1NC(=O)CN1CC(O)C1)-c1c(-c3cccs3)c3c(n1CC2)C(=O)N(C(C)(C)C)CCCC3` [Compound 22c, 2-(3-hydroxyazetidin-1-yl)-N-(9-tert-butyl-14-(thien-2-yl)-3-methoxy-5,6,10,11,12,13-hexahydroazocino[4′,3′:4,5]pyrrolo[2,1-a]isoquinolin-8(9H)-on-2-yl)acetamide], the EC50 is 1.26 nM.

Take `COc1cc2c(cc1-c1cccnc1)-c1c(-c3cscn3)c3c(n1CC2)C(=O)N(C(C)(C)C)CCCCC3` [Compound 16t, 2-pyridin-3-yl-9-tert-butyl-3-methoxy-15-(1,3-thiazol-4-yl)-5,6,9,10,11,12,13,14-octahydro-8H-azonino[4′,3′:4,5]pyrrolo[2,1-a]isoquinolin-8-one]: the EC50 is 29.5 nM.

On to `COc1cc2c(cc1-c1cccc(F)n1)-c1c(-c3cncs3)c3c(n1CC2)C(=O)N(C(C)(C)C)CCOC3` [Compound 11k, 9-tert-butyl-2-(6-fluoropyridin-2-yl)-3-methoxy-14-(1,3-thiazol-5-yl)-5,6,10,11-tetrahydro-9H-[1,4]oxazocino[7′,6′:4,5]pyrrolo[2,1-a]isoquinolin-8(13H)-one], for which the EC50 is 13.8 nM.

With `CCS(=O)(=O)c1cc2c(cc1OC)CCn1c3c(c(Br)c1-2)CCCCN(C(C)(C)C)C3=O` [Compound 23e, 9-tert-butyl-14-bromo-2-ethylsulfonyl-3-methoxy-5,6,10,11,12,13-hexahydroazocino[4′,3′:4,5]pyrrolo[2,1-a]isoquinolin-8(9H)-one], the EC50 was 155 nM.

`COc1cc2c(cc1-c1c(C)nn(C)c1C)-c1c(-c3cccs3)c3c(n1CC2)C(=O)N(C(C)C)CCN(C(=O)CCC(F)(F)F)C3` [Compound 10t, 9-isopropyl-3-methoxy-14-(2-thienyl)-12-(4,4,4-trifluorobutanoyl)-2-(1,3,5-trimethyl-1H-pyrazol-4-yl)-5,6,10,11,12,13-hexahydro[1,4]diazocino[6′,7′:4,5]pyrrolo[2,1-a]isoquinolin-8(9H)-one]: the EC50 is 977 nM.

Take `COc1cc2c(cc1-c1cccnc1)-c1c(-c3cccs3)c3c(n1CC2)C(=O)N(C(C)(C)C)CCCOC3` [Compound 7l, 9-tert-butyl-3-methoxy-2-pyridin-3-yl-15-(2-thienyl)-5,6,9,10,11,12-hexahydro[1,5]oxazonino[8′,7′:4,5]pyrrolo[2,1-a]isoquinolin-8(14H)-one]: the EC50 is 2.82 nM.
